# Reference: patent US5356923A, “1-hydroxy-4(3-cyclopentyloxy-4-methoxyphenyl)-2-pyrrolidone and anti-hypertensive use thereof” (Orion-yhtyma Oy, priority 1990, dated 1994)
# Legend:
# PDE IV [1] = test: Inhibition of PDE IV; assay type: biochemical; details: PDE isoenzymes isolated using DEAE-Sepharose chromatography
# Protocol: (§1) PDE isoenzymes were isolated using DEAE-Sepharose chromatography as described by Reeves et al. in Biochem. J., 241 (1987), pp. 535-541. PDE IV and PDE III activities were determined by the method of Alajoutsijarvi and Nissinen as described in Anal. Biochem. 165 (1987), pp. 128-132.
# PDE III [2] = target: T1, PDE III (Homo sapiens, UniProt Q14432); test: Inhibition of PDE III; assay type: biochemical; details: PDE isoenzymes isolated using DEAE-Sepharose chromatography
# T1 construct: PDE isoenzymes were isolated using DEAE-Sepharose chromatography; from tissue; the cited Reeves et al. 1987 used human and guinea-pig cardiac ventricle (own knowledge)
# T1 sequence (Q14432 whole entry): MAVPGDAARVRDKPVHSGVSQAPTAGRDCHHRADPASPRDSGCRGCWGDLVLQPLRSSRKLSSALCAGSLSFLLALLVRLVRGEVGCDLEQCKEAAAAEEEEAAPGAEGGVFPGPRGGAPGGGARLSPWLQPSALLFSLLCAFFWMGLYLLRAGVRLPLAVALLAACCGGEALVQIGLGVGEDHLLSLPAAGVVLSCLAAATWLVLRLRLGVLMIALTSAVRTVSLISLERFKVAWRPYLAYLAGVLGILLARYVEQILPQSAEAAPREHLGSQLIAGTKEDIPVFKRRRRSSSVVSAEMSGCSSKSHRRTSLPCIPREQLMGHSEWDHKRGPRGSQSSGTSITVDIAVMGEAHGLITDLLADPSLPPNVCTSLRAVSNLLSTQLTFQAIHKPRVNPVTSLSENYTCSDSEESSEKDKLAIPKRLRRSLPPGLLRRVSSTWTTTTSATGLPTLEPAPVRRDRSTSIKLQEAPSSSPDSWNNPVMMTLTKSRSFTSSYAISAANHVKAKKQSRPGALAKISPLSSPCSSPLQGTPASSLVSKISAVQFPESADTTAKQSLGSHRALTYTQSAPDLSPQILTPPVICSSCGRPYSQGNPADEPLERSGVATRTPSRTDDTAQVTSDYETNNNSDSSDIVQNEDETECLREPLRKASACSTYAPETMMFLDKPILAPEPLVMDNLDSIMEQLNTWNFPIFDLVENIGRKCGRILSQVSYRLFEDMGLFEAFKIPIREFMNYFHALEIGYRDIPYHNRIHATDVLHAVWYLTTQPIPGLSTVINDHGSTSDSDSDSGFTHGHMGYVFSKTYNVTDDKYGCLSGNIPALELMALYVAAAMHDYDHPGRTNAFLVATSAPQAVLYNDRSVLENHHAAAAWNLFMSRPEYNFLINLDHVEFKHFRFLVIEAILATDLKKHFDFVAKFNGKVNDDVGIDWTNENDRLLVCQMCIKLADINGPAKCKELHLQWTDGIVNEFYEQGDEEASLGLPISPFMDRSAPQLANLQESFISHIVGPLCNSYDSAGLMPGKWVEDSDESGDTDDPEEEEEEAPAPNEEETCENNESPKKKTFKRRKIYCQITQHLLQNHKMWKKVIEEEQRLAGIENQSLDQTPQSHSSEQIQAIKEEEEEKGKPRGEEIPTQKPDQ
# Protocol: as §1
# [3] = system: LTB4 synthesis in human basophilic leucocytes; test: Inhibition of arachidonic acid induced LTB4 synthesis; assay type: cell-based; details: Leucocyte, HPLC, UV 271 nm
# Protocol: (§2) The inhibition of arachidonic acid induced LTB4 and LTC4 synthesis in human basophilic leucocytes was determined with liquid chromatography and UV detection. LTB4 and LTC4 were separated first by HPLC with a Spherisorb ODS colon (5 μm, 150×4.6 mm) and Spectroflow 400 Kratos Analytical pump. The flow rate was 1 ml/min and the solvents were methanol/water/acetic acid […], pH 5.0 for LTB4 and methanol/water/acetic acid/phosphoric acid (65/35/0.07/0.03), pH 5.5 for LTC4. The peaks were analyzed further with Spektroflow 773 Kratos Analytical UV absorbance detector and leukotrienes were detected at the wavelength of 271 nm and 280 nm for LTB4 and LTC4, respectively.
# [4] = system: LTC4 synthesis in human basophilic leucocytes; test: Inhibition of arachidonic acid induced LTC4 synthesis; assay type: cell-based; details: Leucocyte, HPLC, UV 280 nm
# Protocol: as §2
# PDE IV [5] = details: prior art compound, no test shown; cited from earlier work
# PDE III [6] = target: T1, PDE III; details: prior art compound, no test shown; cited from earlier work
IC50 (PDE IV [1]),IC50 (PDE III [2]),IC50 [3],IC50 [4],Compound,PDE IV selectivity (in words) (PDE IV [5]),inhibition of PDE III (in words) (PDE III [6])
0.9 µM,205 µM,3.7 µM,3.2 µM,"COc1ccc(C2CC(=O)N(O)C2)cc1OC1CCCC1 (stereo not drawn) [Example 1, 1-Hydroxy-4-(3-cyclopentyloxy-4-methoxyphenyl)-2-pyrrolidone]",,
,,,,"COc1ccc(C2CNC(=O)C2)cc1OC1CCCC1 (stereo not drawn) [rolipram, 4-[3-(cyclopentyloxy)-4-methoxyphenyl]-2-pyrrolidone]",not selective PDE IV inhibitor,also inhibits PDE III
